# Laboratory results as given in patent publication US20260174858A1, “TARGETING THE m6A MRNA DEMETHYLASE FTO” (University of Virginia Patent Foundation, priority 2022, published 2026).
# Key:
# [1] = system: mouse BMDMs; experiment: VEGFA release in mouse BMDMs (ELISA); assay type: cell-based; conditions: FTOi 20 uM 12 hours, with or without LPS 250 ng/ml 6 hours, supernatant ELISA
# Protocol: Primary WT or mutant mouse bone marrow derived macrophages (BMDMs) were isolated as previously described (4). BMDMs were cultured in IMDM (Gibco) basal medium containing 10% fetal bovine serum (FBS), 30% L929 supernatants, nonessential amino acids, sodium pyruvate, 2-mercaptoethanol, and antibiotics. THP-1 cells were cultured in RPMI 1640 medium with 10% FBS and antibiotics. Human RPE cells were isolated as previously described and cultured in DMEM medium with 10% FBS and antibiotics. All cells were maintained at 37° C. in a 5% CO2 environment.
# The RPE-choroid complex was isolated from mouse eyes on day 3 after laser injury and treatment with FTO inhibitor or vehicle. Eye tissues were lysed by sonication with immunoprecipitation assay (RIPA) buffer (Sigma-Aldrich, R0278, USA) containing protease inhibitor (Sigma-Aldrich, 11836170001, USA), on ice for 15 minutes. The lysate was centrifuged at 20,000×g for 15 minutes at 4° C., and total protein in the lysates was quantified using the Thermo Scientific™ Pierce™ BCA™ Protein Assay (Fisher Scientific, PI23225, USA). VEGFA protein levels in the supernatants were measured by VEGF DuoSet ELISA (R&D Systems, DY493, USA), following the manufacturer's instructions. Mouse BMDMs or human THP-1 cells (5×10^5 cells per well) were plated into six-well plates in complete medium and allowed to adhere overnight. Cells were then incubated for 24 hours in the absence or presence of various doses of FTO inhibitor or METTL3 inhibitors (STM2457, Selleck Chemicals). […] The siRNAs (siFto: 5′-P.G.A.G.G.A.U.C.C.A.A.G.G.C.A.A.A.G.A.U.dT.dT 3′ (SEQ ID NO: 38); siCtrl: 5′-P.U.A.A.G.G.C.U.A.U.G.A.A.G.A.G.A.U.dT.dT 3′; SEQ ID NO: 39), were designed and synthesized by GE Healthcare Dharmacon, were transfected twice with BMDMs by using DharmaFECT 4 Transfection Reagent (Dharmacon, T-2004, USA). VEGFA levels in the supernatants were measured by mouse or human VEGF DuoSet ELISA (R&D Systems, DY493 or DY293B, USA), following the manufacturer's instructions.
# [2] = system: Vegfa mRNA; experiment: MeRIP-qPCR of m6A methylated Vegfa mRNA in BMDMs; assay type: cell-based, mouse; conditions: BMDMs treated with FTOi vs DMSO, MeRIP and qPCR
# Protocol: To validate m6A methylation of Vegfa mRNA and perturbations induced by FTOi treatment, we performed MeRIP-qPCR by following the EpiMark® N6-Methyladenosine Enrichment Kit protocol (New England Biolabs, E1610S, USA). Briefly, total RNA was extracted from mouse BMDMs treated with 5 μM of FTO inhibitor or vehicle for 24 hours by using TRIzol™ Reagent (Thermo Fisher Scientific, 15596018, USA). 100 μg of total RNA from each group was mixed with unmodified RNA (Negative control, NC). Next, 20 μg of these mixtures was incubated with m6A antibody (Cell Signaling Technology, D9D9W, USA) and then pulled down using Pierce™ Protein A/G Magnetic Beads (Thermo Fisher Scientific, 88802, USA) overnight. The enriched m6A positive RNAs were then eluted and purified by NucleoSpin RNA Clean-Up (Macherey-Nagel, 740948.25, USA), and the amounts of m6A-modified Vegfa mRNA or negative control RNAs were determined by reverse transcription and qPCR.
# [3] = system: Human RPE cell line, ARPE-19; experiment: TGF-β1-induced fibrotic response in ARPE-19 (immunoblotting, immunofluorescence); assay type: cell-based; conditions: FTOi pretreatment at indicated concentrations, TGF-β1 10 ng/ml 12 hours
# Protocol: Cells and tissues were homogenized in RIPA buffer (R0278, Sigma) with protease and phosphatase inhibitors (A32959, Thermo Scientific). Protein concentration was determined with a Pierce BCA Protein Assay Kit (23225, Thermo Scientific). Equal quantities of protein boiled in LDS Sample Buffer (NP0007, Thermo Scientific) were resolved by Novex Tris-glycine gels (Invitrogen) and transferred onto LF PVDF membranes (1704274, Bio-Rad). The transferred membranes were blocked with Blocking Buffer (927-40000, LI-COR) and incubated with the following primary antibodies: anti-FTO pAb (AdipoGen Life Sciences, AG-25A-0089-C100, USA), anti-GAPDH mAb (Cell Signaling Technology, 97166), anti-F4/80 (Santa Cruz Biotechnology, sc-25830). The signal was visualized with species-specific secondary antibodies conjugated with IRDye and Odyssey® CLx Imaging System.
compound,measurement,setting,value
Cc1noc(C)c1-c1cc(Cl)c(Nc2ccccc2C(=O)NO)c(Cl)c1 [FB23-2],VEGFA release,[1],inhibits VEGFA release
same,VEGFA release,[1]; listed as FTO inhibitor,reduction in mouse VEGFA release
same,Level of m6A methylated Vegfa mRNA,[2],increase the level of methylated (m6A) VEGFA mRNA
same,Level of m6A methylated Vegfa mRNA,[2]; listed as FTO inhibitor,significantly increased the abundance of m6A methylated Vegfa mRNA
same,"Fibrotic response (αSMA, fibronectin)",[3],suppress the fibrotic response
